Test results taken from patent US10604514B2, “6-(5-membered heteroaryl)isoquinolin-3-yl carboxamides and preparation and use thereof” (Samumed, LLC, priority 2017, dated 2020).

Columns and labels:
IL-6 = IL-6 inhibition in LPS-stimulated human peripheral blood mononuclear cells (HTRF); assay type: cell-based; settings: Homo sapiens, PBMC; for EC50: IL-6, LPS-stimulated huPBMCs, HTRF; for inhibition at 10 µM: read-out: percent value in parentheses below EC50 >10
Summary of the method: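 Fresh human PBMCs (5000 cells/well, 1% FBS RPMI) preincubated with compound (10-point 1:3 series from 10 μM, 0.25% DMSO) 2 h at 37 °C, then stimulated with 50 ng/mL E. coli LPS for 22 h. IL-6 by HTRF 665/620 ratio; DMSO-normalized, EC50 from 4-parameter fit.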

[1] = tested on: Tau phosphorylation at Threonine 212 (pT212Tau), HEK293T cells; test: Tau phosphorylation at Threonine 212 (pT212Tau) in Dyrk1a- and MAPT-overexpressing HEK293T cells, sandwich ELISA; assay type: cell-based; settings: Homo sapiens, HEK-293T, overnight (16-18 hours), read-out: Thr212 EC50
Method: Representative compounds were screened using the cell-based assay procedure for signal of Tau phosphorylation at Threonine 212 (pT212Tau) in a transiently double transfected (Dyrk1a- and MAPT-overexpressing) cell type as described below.
HEK293T cells (transfectable human embryonic kidney cells) were cultured in DMEM medium supplemented with 10% FBS and 1% penicillin/streptomycin.
HEK293T cells were transiently transfected to overexpress Dyrkla and microtubule-associated protein Tau (MAPT) genes. Specifically, Dyrkla and MAPT expression vectors were obtained from OriGene (10 μg of each, catalog numbers SC314641 and RC216166, respectively). A MaxiPrep for each vector was ordered and received from GeneWiz, yielding […] (resuspended at […]) of the Dyrkla expression vector, and 898 μg (resuspended at 1.796 μg/μL) of MAPT.
HEK293T cells were seeded at 1.0×10^7 cells in 10 mL per T-75 flask. […] One T-75 flask was designated as a no-vector negative control for pT212Tau signal.
After 4˜6 hours of incubation in transfection reagents, transiently double transfected HEK293T cells were dissociated by treatment with trypsin EDTA and seeded at 1.0×10^5 cells in 100 μL per well in 96-well plates. No-vector negative controls were seeded in separate 96-well plates to avoid the risk of the negative control cells picking up the overexpression during incubation. At the time of seeding, DMSO-resuspended Samumed compounds were dispensed to eight wells as a serial dilution from 10 μM to 4.6 nM final concentration in medium, or at 0.12 μM to 0.05 nM with particularly potent compounds. Cells were exposed to the representative compounds overnight (16-18 hours) in a 37° C. incubator.
96-Well flat-bottom plates were coated with 100 μL per well anti-HT7 capture antibody (ThermoFisher, MN1000) diluted 1:300 in 1×PBS at 4° C. overnight, with shaking at 500 rpm. After overnight capture antibody incubation, coated plates were washed four times with 200 µL per well of 1×PBS-0.05% Tween-20, and blocked for 1 hour with 200 μL per well of 1×PBS with 2% BSA. After 1 hour of blocking, plates were washed four times with 200 μL per well of 1×PBS-0.05% Tween-20, prior to sample loading.
Wells of compound-treated cells were visually checked for cell death before being washed with 200 μL per well of 1×DPBS supplemented with phosphatase inhibitor diluted to IX. Cells were then lysed with 100 μL 1×RIPA buffer supplemented with phosphatase and protease inhibitors (each diluted to a final 1×). Cells were shaken at 500 rpm, 4° C. for 20 minutes prior to further lysis (via manual scraping) and transfer to 96-well V-bottom collection plates (Corning, 3894). V-bottom plates were centrifuged at 4000 rpm, 4° C., for 15 minutes, and 100 μL of lysate supernatant from each well was directly tested for pT212Tau signal by sandwich ELISA.
Specifically, lysates were directly transferred to the coated and blocked ELISA plates for 2 hours before plates were washed four times with 200 μL per well of 1×PBS-0.05% Tween-20 and probed with 100 μL per well of anti-pT212Tau antibody (ThermoFisher, 44-740G) diluted 1:200 in 1×PBS for 2 hours. Plates were washed four times with 200 μL per well of 1×PBS-0.05% Tween-20 and probed with 100 μL per well of anti-rabbit/HRP conjugate (Cell Signaling Technology, 7074S) diluted 1:600 in 1×PBS for 1 hour. Plates were washed four times with 200 μL per well of 1×PBS-0.05% Tween-20 before 100 μL per well of TMB substrate solution (ThermoFisher, N301) was added. When colour development was observed, 100 μL per well of stop solution (ThermoFisher, N600) was added, and colorimetric detection of pT212Tau signal was read at 450 nm with the Cytation 3 Cell Imaging Multi-Mode Reader (BioTek). The signal was used to plot, draw the curves fitting, and determine the EC50 values in GraphPad Prism for tested representative compounds.

EC50 (IL-6) [nM] | Compound | EC50 [1] [nM] | inhibition at 10 µM (IL-6) [%]
6660 | Cc1nnc(-c2ccc3cnc(NC(=O)[C@H]4CC[C@H](N(C)C)CC4)cc3c2)s1 [Compound 22, trans-4-(Dimethylamino)-N-(6-(5-methyl-1,3,4-thiadiazol-2-yl)isoquinolin-3-yl)cyclohexane-1-carboxamide] | 11 | 
9570 | Cc1cn2c(n1)CN(C(=O)Nc1cc3cc(-c4nnc(C)s4)ccc3cn1)CC2 [Compound 58, 2-Methyl-N-(6-(5-methyl-1,3,4-thiadiazol-2-yl)isoquinolin-3-yl)-5,6-dihydroimidazo[1,2-a]pyrazine-7(8H)-carboxamide] | 93 | 
> 10000 | C[C@@H]1CN(C(=O)Nc2cc3cc(-c4cnn(C)c4)ccc3cn2)CCN1C [Compound 67, (R)-3,4-Dimethyl-N-(6-(1-methyl-1H-pyrazol-4-yl)isoquinolin-3-yl) piperazine-1-carboxamide] | 6 | 29.6
1110 | COCCN[C@H]1CC[C@H](C(=O)Nc2cc3cc(-c4cnc(C)o4)ccc3cn2)CC1 [Compound 106, trans-4-((2-Methoxyethyl)amino)-N-(6-(2-methyloxazol-5-yl)isoquinolin-3-yl)cyclohexane-1-carboxamide] | 137 | 
1210 | COCCN[C@H]1CC[C@H](C(=O)Nc2cc3cc(-c4cnn(C)c4)ccc3cn2)CC1 [Compound 196, trans-4-((2-Methoxyethyl)amino)-N-(6-(1-methyl-1H-pyrazol-4-yl)isoquinolin-3-yl)cyclohexane-1-carboxamide] | 19 | 
> 10000 | Cc1nnc(-c2cc(F)c3cnc(NC(=O)N(C)C4CCN(C)CC4)cc3c2)s1 [Compound 227, 3-(8-Fluoro-6-(5-methyl-1,3,4-thiadiazol-2-yl)isoquinolin-3-yl)-1-methyl-1-(1-methylpiperidin-4-yl)urea] | 691 | 4.9
> 10000 | CN1CCC(N(C)C(=O)Nc2cc3cc(-c4cn(C)nn4)cc(F)c3cn2)CC1 [Compound 228, 3-(8-Fluoro-6-(1-methyl-1H-1,2,3-triazol-4-yl)isoquinolin-3-yl)-1-methyl-1-(1-methylpiperidin-4-yl)urea] | > 10000 | 3.3
> 10000 | CN1CCC(N(C)C(=O)Nc2cc3cc(-c4cnn(C)c4)cc(F)c3cn2)CC1 [Compound 230, 3-(8-Fluoro-6-(1-methyl-1H-pyrazol-4-yl)isoquinolin-3-yl)-1-methyl-1-(1-methylpiperidin-4-yl)urea] | 56 | 36.6
8280 | Cc1ncc(-c2ccc3cnc(NC(=O)N(C)C4CCN(C)CC4)cc3c2)o1 [Compound 231, 1-Methyl-3-(6-(2-methyloxazol-5-yl)isoquinolin-3-yl)-1-(1-methylpiperidin-4-yl)urea] | 110 | 

Compound | EC50 (IL-6) [nM] | EC50 [1] [nM] | inhibition at 10 µM (IL-6) [%]
CN1CC2CCC(C1)N2C(=O)Nc1cc2cc(-c3cnn(C)c3)ccc2cn1 [Compound 61, 3-Methyl-N-(6-(1-methyl-1H-pyrazol-4-yl)isoquinolin-3-yl)-3,8-diazabicyclo[3.2.1]octane-8-carboxamide] | > 10000 | 15 | 5.2
Cc1nnc(-c2ccc3cnc(NC(=O)N4C5CCC4CN(C)C5)cc3c2)s1 [Compound 108, 3-Methyl-N-(6-(5-methyl-1,3,4-thiadiazol-2-yl)isoquinolin-3-yl)-3,8-diazabicyclo[3.2.1]octane-8-carboxamide] | > 10000 | 22 | 4.1
Cc1nnc(-c2ccc3cnc(NC(=O)N4[C@@H]5CC[C@H]4C[C@H](NCCC(F)(F)F)C5)cc3c2)s1 [Compound 153, (1R,5S)-N-(6-(5-Methyl-1,3,4-thiadiazol-2-yl)isoquinolin-3-yl)-3-exo-((3,3,3-trifluoropropyl)amino)-8-azabicyclo[3.2.1]octane-8-carboxamide] | > 10000 | 528 | 9
Cc1ncc(-c2ccc3cnc(NC(=O)[C@H]4CC[C@H](NCCF)CC4)cc3c2)o1 [Compound 155, trans-4-((2-fluoroethyl)amino)-N-(6-(2-methyloxazol-5-yl)isoquinolin-3-yl) cyclohexane-1-carboxamide] | 1060 | 26 | 
Cc1nnc(-c2ccc3cnc(NC(=O)N4[C@@H]5CC[C@H]4C[C@@H](NCCC(F)(F)F)C5)cc3c2)s1 [Compound 195, (1R,5S)-cis-N-(6-(5-methyl-1,3,4-thiadiazol-2-yl)isoquinolin-3-yl)-3-((3,3,3-trifluoropropyl)amino)-8-azabicyclo[3.2.1]octane-8-carboxamide] | > 10000 | 46 | 23.4
